Results on seven compounds are retold here after patent US4705784A, “Cephem compounds” (Sumitomo Pharmaceuticals Company, Limited, priority 1983, dated 1987).

As a reminder, the MIC is the lowest concentration that inhibits growth of the organism. A higher MIC goes with a need for much substance.

Data set [1] deals with Staphylococcus epidermidis. Description: Antimicrobial activity test, Staphylococcus epidermidis. The format is cell-based.
A further data set concerns Escherichia coli. Description: Antimicrobial activity test, Escherichia coli. The format is cell-based.
A further data set relates to Proteus mirabilis. Description: Antimicrobial activity test, Proteus mirabilis. The format is cell-based.
In the next data set the test system is Serratia marcescens. Description: Antimicrobial activity test, Serratia marcescens. The format is cell-based.
A further data set has as its system Enterobacter aerogenes. The data set is described as follows: Antimicrobial activity test, Enterobacter aerogenes. The format is cell-based. The note with it: Klebsiella aerogenes.
Data set [2] in a line: Oral dosage absorbability: urinary excretion rate after oral administration, mouse. The format is in vivo. The note with it: urine, dose: 50 mg/kg. The protocol: (§1) Results of oral dosage absorbability tests
(§2) Urinary excretion rate after oral
(§3) Test compd. administration (dose: 50 mg/kg)

The nature of data set [3]: Oral dosage absorbability: urinary excretion rate after oral administration, rat. Particulars: urine, dose: 50 mg/kg. The format is in vivo. How it is done:
as §1, §2, §3

Data set [4] deals with β-lactamase producing resistant bacteria. Particulars: cephem antibiotics in use for oral administration; cited from earlier work.
For a further data set, the system named is bacteria. Particulars: cephem antibiotics in use for oral administration; cited from earlier work.

SMILES strings stand for the structures. Values after ≈ are worked out from the molar mass of the structure shown.

On to `CCO/N=C(\C(=O)NC1C(=O)N2C(C(=O)O)=C(COC(N)=O)CSC12)c1cscn1` (centres unmarked) [Example 10], for which the minimal inhibitory concentration (MIC) came to 3.13 µg/mL (≈ 6.87 µM) in data set [1]; 0.2 µg/mL (≈ 0.439 µM) with Escherichia coli; 0.05 µg/mL (≈ 0.11 µM) in the data set with Proteus mirabilis; 3.13 µg/mL (≈ 6.87 µM) in the data set on Serratia marcescens; 0.78 µg/mL (≈ 1.71 µM) with Enterobacter aerogenes.
Turning to `NC(=O)OCC1=C(C(=O)O)N2C(=O)C(NC(=O)/C(=N\O)c3cscn3)[C@H]2SC1` (some centres unmarked) [Example 16, 7-[(Z)-2-hydroxyimino-2-(thiazol-4-yl)acetamido]-3-carbamoyloxymethyl-3-cephem-4-carboxylic acid], the minimum inhibitory concentration (MIC) was 1.56 µg/mL (≈ 3.65 µM) in data set [1]; 0.39 µg/mL (≈ 0.912 µM) with Escherichia coli; 0.78 µg/mL (≈ 1.82 µM) against Proteus mirabilis; 3.13 µg/mL (≈ 7.32 µM) in the data set with Serratia marcescens; 1.56 µg/mL (≈ 3.65 µM) with Enterobacter aerogenes.
Consider `CO/N=C(\C(=O)NC1C(=O)N2C(C(=O)O)=C(COC(N)=O)CS[C@H]12)c1cscn1` (some centres unmarked) [Example 1, 7-[(Z)-2-Methoxyimino-2-(thiazol-4-yl)acetamido]-3-carbamoyloxymethyl-3-cephem-4-carboxylic acid], for which the MIC was 1.56 µg/mL (≈ 3.53 µM) in [1]; 0.05 µg/mL (≈ 0.113 µM) in the data set with Escherichia coli; no more than 0.013 µg/mL in the data set with Proteus mirabilis; 1.56 µg/mL (≈ 3.53 µM) with Serratia marcescens; 0.39 µg/mL (≈ 0.883 µM) against Enterobacter aerogenes.
In the case of `CO/N=C(\C(=O)NC1C(=O)N2C(C(=O)OCOC(=O)C(C)(C)C)=C(COC(N)=O)CS[C@H]12)c1cscn1` (some centres unmarked) [Example 5, Pivaloyloxymethyl 7-[(Z)-2-methoxyimino-2-(thiazol-4-yl)acetamido]-3-carbamoyloxymethyl-3-cephem-4-carboxylate], the dose excreted in data set [2] was found to be 64%; in data set [3] it was 30%.
On to `CC1=C(C(=O)O)N2C(=O)[C@@H](NC(=O)[C@H](N)c3ccccc3)[C@H]2SC1` [cephalexin], for which the “effect on β-lactamase producing resistant bacteria” value (from here on “effect”) in data set [4] is listed as “ineffective”. For the same compound, in the data set on bacteria, the “antimicrobial activity and width of antimicrobial spectrum” value (shortened to “antimicrobial activity and width”) is recorded as “slightly inferior”.
`N[C@@H](C(=O)N[C@@H]1C(=O)N2C(C(=O)O)=C(CSc3c[nH]nn3)CS[C@H]12)c1ccc(O)cc1` [cefatrizine]: the “effect” value in [4] is given as “ineffective”. In addition, in the data set on bacteria, the “antimicrobial activity and width” value is listed as “slightly inferior”.
Regarding `N[C@@H](C(=O)N[C@@H]1C(=O)N2C(C(=O)O)=C(Cl)CS[C@H]12)c1ccccc1` [cefaclor], in data set [4], the “effect” value is listed as “ineffective”. For the same compound, in the data set on bacteria, the “antimicrobial activity and width” value is listed as “slightly inferior”.
